pIC50: −log10 of the molar value.
What was measured:
[1] = molecular target: T1, P2X purinoceptor 7 (Homo sapiens) (UniProt Q99572); assay: Antagonist activity at P2X7 receptor expressed in human THP1 cells after 90 mins; type: functional, cell-based; design: scale not given: the % may be the effect or the level left; conditions: THP-1
T1 sequence (whole entry): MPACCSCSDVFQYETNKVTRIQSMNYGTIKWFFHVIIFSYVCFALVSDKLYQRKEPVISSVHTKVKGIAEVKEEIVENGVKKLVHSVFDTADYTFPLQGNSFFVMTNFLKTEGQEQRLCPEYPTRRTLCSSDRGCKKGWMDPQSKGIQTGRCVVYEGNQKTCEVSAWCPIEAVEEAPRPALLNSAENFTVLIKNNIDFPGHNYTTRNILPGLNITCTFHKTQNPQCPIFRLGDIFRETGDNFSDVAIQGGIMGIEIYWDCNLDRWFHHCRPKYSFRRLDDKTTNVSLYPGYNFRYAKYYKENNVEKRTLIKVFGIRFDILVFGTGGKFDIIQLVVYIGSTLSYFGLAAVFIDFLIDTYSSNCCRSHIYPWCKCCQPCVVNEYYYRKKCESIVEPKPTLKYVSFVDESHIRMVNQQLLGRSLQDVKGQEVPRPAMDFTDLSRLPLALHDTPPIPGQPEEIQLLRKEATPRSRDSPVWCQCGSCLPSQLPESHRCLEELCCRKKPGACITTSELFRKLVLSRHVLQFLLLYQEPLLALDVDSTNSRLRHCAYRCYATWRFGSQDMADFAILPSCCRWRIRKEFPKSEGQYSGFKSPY

[2] = test system: THP-1; assay: Cytotoxicity against human THP1 cells expressing P2X7 receptor after 21 hrs by Almar blue cytotoxicity assay; type: functional, cell-based; conditions: THP-1, 21 h

| Activity [1] [%] | Structure (SMILES) | pIC50 [2] |
| --- | --- | --- |
| 44 | CN(C)CCCOc1ccc(/C=C/C(=O)N(C)CCCOc2c(Br)cc(CCN(C)C)cc2Br)cc1Br [PSAMMAPLYSENE C] | 5.15 |
| 72 | CN(C)CCCOc1c(Br)cc(/C=C/C(=O)N(C)CCCOc2c(Br)cc(CCN(C)C)cc2Br)cc1Br [PSAMMAPLYSENE D] | 5.15 |
